Here are results for one compound from PMC11802874, “The hypolipidemic effect of MI-883, the combined CAR agonist/ PXR antagonist, in diet-induced hypercholesterolemia model” (Nature Communications, 2025).

What is called fraction unbound is free concentration divided by total concentration.

Several values for one entry are separate records, joined by “and”; a condition that tells them apart may be missing. Equal entries are not always repeated.

The subject of data set [1] is 3D primary human hepatocyte spheroids. The data set is described as follows: ATP production and spheroid size in 3D PHH spheroids. Format: cell-based. As for the experimental part:
Briefly, PHHs were cultivated for 6 days to generate compact spheroids by spontaneous self-aggregation and then half of PHH medium was exchanged for FBS-free PHH medium. 3D PHHs were treated with MI-883 (5 μM) commenced from day 8 within a time range of 8–120 h (time points were 8, 12, 24, 48, 72, and 120 h). Conditioned FBS-free PHH medium was changed every 2–3 days of the treatment. […] Data are presented as the mean ± SD of fold change expression gained from 3D spheroids of three different donors. ATP assay has been performed as described.

For data set [2], the target named is T1, PXR/NCOA2 (Homo sapiens, UniProt O75469).
T1 construct: PXR-LBD (residues 108–434); expressed in transfected cells; host or cells: HepG2
The data set is described as follows: Mammalian two-hybrid PXR/coactivator NCOA2 recruitment, HepG2. The data set is classed as cell-based. The arrangement: key: firefly/Metridia luciferase activity ratio (normalized). The procedure: (§1) The GAL4-dependent pGL4-G5, harboring a pentamer of GAL4 binding sites in front of the E1b promoter was described before.
(§2) Transient batch transfection of HepG2 cells was done as described above. […] All transfections included 0.01 µg pMetLuc2control per well for normalization of firefly luciferase reporter activities. After overnight incubation with the transfection mixtures, cells were treated with chemicals in a volume of 100 µl of cell culture medium. […] Firefly luciferase activity was measured in 10 µl of cell lysates, and Metridia luciferase activity was analyzed in 10 µl of medium supernatant, both as described before. Results were normalized by dividing firefly luciferase activity by Metridia luciferase activity measured from the same well. Measurements of samples were repeated several times (n ≥ 3).

Data set [3] deals with T2, PXR/NCOR2 (Homo sapiens, UniProt O75469).
T2 construct: PXR-LBD (residues 108–434); expressed in transfected cells; host or cells: HepG2
The data set is described as follows: Mammalian two-hybrid PXR/corepressor NCOR2 release, HepG2. The data set is classed as cell-based. More on the design: key: firefly/Metridia luciferase activity ratio (normalized). As for the experimental part: as §1, §2

A short description of data set [4]: Mouse plasma protein binding. Format: in vitro ADME. The text has this:
(§3) Plasma protein binding, and stability in human and mouse plasma have been tested as previously described.

A short description of data set [5]: Stability in mouse plasma. The data set is classed as in vitro ADME. The following applies: read-out: Stability in mouse plasma, t1/2.
Text: as §3

The test system of data set [6] is LS174T cells (endogenous PXR). Kind of data set: CYP3A4 mRNA RT-qPCR in LS174T cells. Background: Real-time PCR tracks product formation cycle by cycle.
Text: LS174T human colon adenocarcinoma cells (RRID:CVCL_1384) were used in induction experiments with the subsequent CYP3A4 mRNA RT-qPCR analysis as they express functional endogenous PXR.
For data set [7], the target named is THα (Homo sapiens, UniProt P10827). The data set is described as follows: Luciferase reporter gene assay THα, HepG2.
Text: (§4) Gal4-LBD constructs of tested nuclear receptors have been used together with pGL4.31[luc2P/GAL4UAS/Hygro] luciferase reporter construct and pRL-TK Renilla expression vector (both from Promega, Hercules, USA) in HepG2 cells transfected with Lipofectamine 2000 or 3000 reagents. For GRα and FXR receptors, full-length expression vectors have been used with pGRE-luc or pFXRE-luc luciferase constructs. For the aryl hydrocarbon receptor (AhR), p1A1-luc construct was used with only pRL-TK vector for transfection normalization. A dual reporter assay (Promega, Hercules, USA) was used to analyze both firefly and Renilla luciferase activities.
(§5) Gal4-LBD constructs of tested nuclear receptors have been used together with pGL5-luc luciferase reporter construct and pRL-TK Renilla expression vector in HepG2 cells transfected with Lipofectamine 2000 or 3000 reagents. For GRα and FXR receptors, full-length expression vectors have been used with pGRE-luc or pFXRE-luc luciferase constructs. For the aryl hydrocarbon receptor (AhR), p1A1-luc construct was used with only pRL-TK vector for transfection normalization. […] Bars represent means±S.D. (n=3).
In data set [8] the target is PPARα (Homo sapiens, UniProt Q07869). The data set is described as follows: Luciferase reporter gene assay PPARα, HepG2. In general terms: Reporter assays use an easily measured gene product as a stand-in for the process of interest.
Text: The luciferase reporter gene assays for FXR, LXRα, LXRβ, THα, GRα, PPARα, PPARδ/β, PPARγ, AhR, VD, ERα, ERβ and mouse Car are described in our recent paper[19]
as §4, §5
[9] abbreviates: single agent: RIF (10 µM), MI-883 10 μM.

T2 sequence (O75469 108-434): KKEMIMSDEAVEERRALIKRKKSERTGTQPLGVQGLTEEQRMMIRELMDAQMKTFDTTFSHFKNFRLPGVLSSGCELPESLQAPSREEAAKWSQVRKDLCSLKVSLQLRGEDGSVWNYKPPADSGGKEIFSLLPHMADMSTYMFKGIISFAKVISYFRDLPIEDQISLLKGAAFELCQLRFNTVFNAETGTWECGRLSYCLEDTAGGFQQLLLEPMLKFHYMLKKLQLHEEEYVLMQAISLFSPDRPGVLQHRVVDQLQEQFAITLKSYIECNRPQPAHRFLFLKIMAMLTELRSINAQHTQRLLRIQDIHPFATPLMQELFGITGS
T2 sequence (P19793 whole entry partner, the tested form may be a part): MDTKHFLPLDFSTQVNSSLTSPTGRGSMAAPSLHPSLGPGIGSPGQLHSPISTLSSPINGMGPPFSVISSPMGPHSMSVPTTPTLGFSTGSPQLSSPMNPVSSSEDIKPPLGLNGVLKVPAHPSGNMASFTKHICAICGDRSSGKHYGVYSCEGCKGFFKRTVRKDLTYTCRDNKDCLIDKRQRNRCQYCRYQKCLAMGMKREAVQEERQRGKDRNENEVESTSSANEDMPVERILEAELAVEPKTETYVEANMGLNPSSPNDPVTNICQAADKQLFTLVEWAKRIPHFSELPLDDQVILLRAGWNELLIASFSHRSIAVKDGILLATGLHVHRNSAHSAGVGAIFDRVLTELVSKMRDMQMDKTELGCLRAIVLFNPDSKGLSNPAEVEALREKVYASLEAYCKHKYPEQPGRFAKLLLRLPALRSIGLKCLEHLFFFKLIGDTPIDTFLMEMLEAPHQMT
T1 sequence (O75469 108-434): as the sequence (O75469 108-434) above
Sequence of THα (P10827 163-410 isoform P10827-2 limits assumed): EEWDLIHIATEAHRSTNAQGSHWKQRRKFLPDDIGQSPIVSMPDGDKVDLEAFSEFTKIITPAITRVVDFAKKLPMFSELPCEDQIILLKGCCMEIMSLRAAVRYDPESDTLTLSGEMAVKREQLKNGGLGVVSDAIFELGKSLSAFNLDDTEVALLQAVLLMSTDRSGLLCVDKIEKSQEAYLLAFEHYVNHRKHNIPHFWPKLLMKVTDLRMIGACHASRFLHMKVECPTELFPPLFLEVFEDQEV
Sequence of PPARα (Q07869 239-466 limits assumed): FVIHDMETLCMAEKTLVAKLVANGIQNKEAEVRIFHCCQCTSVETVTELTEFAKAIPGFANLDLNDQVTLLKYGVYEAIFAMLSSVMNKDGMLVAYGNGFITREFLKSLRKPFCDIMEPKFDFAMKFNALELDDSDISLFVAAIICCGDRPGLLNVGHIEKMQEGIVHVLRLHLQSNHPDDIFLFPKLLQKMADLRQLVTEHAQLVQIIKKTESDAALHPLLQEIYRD

As for `NC(=O)c1cc(Cn2cc(-c3c(-c4ccc(Cl)cc4)nc4cc(F)ccn34)nn2)ccc1Cl` [MI-883, 2-chloro-5-((4-(2-(4-chlorophenyl)-7-fluoroimidazo[1,2-a]pyridin-3-yl)-1H-1,2,3-triazol-1-yl)methyl)benzamide], the “spheroid size or ATP production in 3D PHHs” value in data set [1] (5 μM, 72 h) is listed as “did not see any decrease”. For the same compound, the “Fig. 7c readout relative to control (control 100)” value in data set [1] (5 uM, three replicates, control = 100) was 92.8 and 153.7 and 124.1. The “PXR/TIF2 (NCOA2) two-hybrid activity, replicates” value was 1.15 and 1.65 and 1.3 and 1.26 and 0.52 in data set [2] (MI-883 30 μM); 0.75 and 0.81 and 0.95 and 0.79 and 0.57 in data set [2] (setting [9]). For the same compound, the “PXR/NCOR2 (SMRT) two-hybrid activity, replicates” value in data set [3] (MI-883 30 μM) was 0.575 and 0.629 and 0.672 and 0.562 and 0.437; in data set [3] (setting [9]), 0.59 and 0.547 and 0.723 and 0.544 and 0.703. The compound also came in with a fraction unbound in data set [4] of 0.01. The half-life in data set [5] is over 2 h. In addition, the “RT-qPCR in LS174T (Fig 1 l, CYP3A4 mRNA), replicates” value in data set [6] (Rif 1μM + MI-883 1μM) was 2.91 and 2.35 and 2.61; in data set [6] (Rif 1μM + test compound 10μM), 0.86 and 1.1 and 0.8; in data set [6] (Rif 10μM + MI-883 1μM) it was 10.4 and 6.9 and 8.3; in data set [6] (Rif 10μM + MI-883 10μM), 3.35 and 2.8 and 2.2; in data set [6] (SR12813 1μM + MI-883 1μM) it was 0.55 and 0.68 and 0.64; in data set [6] (SR12813 1μM + test compound 10μM), 0.77 and 0.59 and 0.57. The “RT-qPCR in LS174T (Fig 1 l, CYP3A4 mRNA), replicates” value in data set [6] (single agent 1μM, ctrl = 1) is 0.45 and 0.96 and 0.51; in data set [6] (single agent 10μM), 0.59 and 0.57 and 0.55. Also, in data set [7], the “NRs assays: TH (GL4-hTRa) (relative to ctrl, replicates)” value was 1.64 and 1.08 and 1.31. Moreover, the “NRs assays: PPARa (relative to ctrl, replicates)” value in data set [8] is 0.75 and 0.92 and 1.14.
